Measured values as given in patent publication US9428510B2, “Derivatives of azaindazole or diazaindazole type for treating a cancer overexpressing Trk” (PIERRE FABRE MEDICAMENT, priority 2012, dated 2016).

Experiments:
KM-12 colon cancer cells = experiment: Antiproliferative activity against human colon cancer cells (KM-12), ATPlite; type: cell-based; settings: KM12, KM-12 cells, 72 hours, read-out: Cell proliferation inhibition (KM-12) IC50
Protocol: The antiproliferative activities of the compounds according to the invention were measured by the ATPlite technique (Perkin Elmer).
Adherent human colon cancer cells (KM-12 colon cancer cells are TrkA-dependent) are inoculated in 96-well plates (3500 cells/well) on day 0, at a concentration compatible with logarithmic growth for the 72 hours required for the evaluation of the compounds. All of the cells are treated on day 1 and then placed in an incubator at 37° C. under an atmosphere of 5% CO2. Cell viability is evaluated on day 4 by assaying released ATP, which is characteristic of viable cells. IC50s are determined by nonlinear regression on the basis of a sigmoidal dose/response relationship model, wherein the Hill coefficient is left variable, carried out on the GraphPad software package according to the algorithm provided.

[1] = tested on: KM-12 experimental tumor model; experiment: In vivo antitumor activity against the KM-12 experimental tumor model; settings: oral route, (q1d6)x2 weeks schedule
Source text: This activity is noticeable since colon cancer is overall poor responsive to chemotherapy.

TrkB = target: T1, TrkB (Homo sapiens, UniProt Q16620); experiment: Test for measuring inhibition of TrkB kinase (Millipore or Kinome Scan, manufacturer's protocols); type: biochemical; settings: 10 nM compound
T1 construct: purchased Millipore or Kinome Scan (DiscoverX)
Source text: (§1) These kinases are produced by Millipore or Kinome Scan (DiscoverX) and are screened according to the manufacturer's protocols.

TrkA = target: T2, TrkA (Homo sapiens, UniProt P04629); experiment: Test for measuring inhibition of TrkA kinase (Millipore or Kinome Scan, manufacturer's protocols); type: biochemical; settings: 10 nM compound
T2 construct: purchased Millipore or Kinome Scan (DiscoverX)
Source text: as §1

TrkB (or NTRK2) = target: T3, TrkB (or NTRK2) (Homo sapiens, UniProt Q16620); experiment: In vitro kinase glo plus-based kinase assay, TrkB; type: biochemical; settings: N=36, 40 μM ATP
T3 construct: using the soluble intracellular segment of theses receptors, containing the kinase activity; purchased Invitrogen
Protocol: An in vitro kinase glo plus-based kinase assay (Promega) was developed in a 96 wells assay plate format to assess the inhibiting properties of compounds on tropomyosin related kinases (Trk) receptors, using the soluble intracellular segment of theses receptors, containing the kinase activity (TrkA (or NTRK1; 400 ng/well; […] Invitrogen)). […] Plates were removed from incubator, and 50 μl of kinase-glo plus was added to each well, followed by a 10 minute incubation at room temperature. The luciferase-induced luminescence, which is proportional to the ATP remaining in the well, was measured on a luminometer. Controls on each plates included wells with the kinase alone (maximal ATP consumption, or 0% inhibition), wells without the kinase (maximal ATP signal or 100% inhibition), and wells with 20 μM staurosporine (positive control of inhibition). […] N=42; […]

T3 sequence (Q16620 455-822 limits assumed): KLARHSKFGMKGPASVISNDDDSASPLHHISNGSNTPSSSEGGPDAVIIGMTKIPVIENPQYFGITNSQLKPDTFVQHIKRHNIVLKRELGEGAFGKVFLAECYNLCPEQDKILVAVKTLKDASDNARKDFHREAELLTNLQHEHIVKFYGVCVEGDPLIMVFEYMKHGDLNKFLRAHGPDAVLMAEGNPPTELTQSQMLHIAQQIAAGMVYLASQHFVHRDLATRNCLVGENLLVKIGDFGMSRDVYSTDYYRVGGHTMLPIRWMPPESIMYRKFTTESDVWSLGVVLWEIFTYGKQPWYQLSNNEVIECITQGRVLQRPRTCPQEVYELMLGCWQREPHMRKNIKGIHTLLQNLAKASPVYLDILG
T1 sequence (Q16620 32-822): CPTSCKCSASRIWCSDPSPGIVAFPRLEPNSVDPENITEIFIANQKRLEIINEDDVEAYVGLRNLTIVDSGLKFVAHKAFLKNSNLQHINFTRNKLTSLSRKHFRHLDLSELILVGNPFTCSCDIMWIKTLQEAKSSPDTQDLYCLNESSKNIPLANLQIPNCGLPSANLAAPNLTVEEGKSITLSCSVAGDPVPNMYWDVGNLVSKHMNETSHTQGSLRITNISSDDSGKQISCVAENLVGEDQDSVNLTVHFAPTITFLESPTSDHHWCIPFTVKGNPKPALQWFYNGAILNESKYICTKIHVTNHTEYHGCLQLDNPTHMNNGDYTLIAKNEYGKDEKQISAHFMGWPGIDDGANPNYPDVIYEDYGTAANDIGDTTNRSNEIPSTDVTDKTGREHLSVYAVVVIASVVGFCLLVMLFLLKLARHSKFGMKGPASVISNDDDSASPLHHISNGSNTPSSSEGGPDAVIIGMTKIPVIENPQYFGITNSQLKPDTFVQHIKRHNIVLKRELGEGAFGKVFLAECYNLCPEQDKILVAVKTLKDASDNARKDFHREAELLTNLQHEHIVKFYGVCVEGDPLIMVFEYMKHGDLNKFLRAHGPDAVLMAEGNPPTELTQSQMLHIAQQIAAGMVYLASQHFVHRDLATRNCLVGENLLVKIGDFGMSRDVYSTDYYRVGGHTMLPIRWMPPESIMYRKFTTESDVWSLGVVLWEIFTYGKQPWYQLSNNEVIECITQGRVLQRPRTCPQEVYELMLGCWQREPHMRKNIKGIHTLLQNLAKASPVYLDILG
T2 sequence (P04629 33-796): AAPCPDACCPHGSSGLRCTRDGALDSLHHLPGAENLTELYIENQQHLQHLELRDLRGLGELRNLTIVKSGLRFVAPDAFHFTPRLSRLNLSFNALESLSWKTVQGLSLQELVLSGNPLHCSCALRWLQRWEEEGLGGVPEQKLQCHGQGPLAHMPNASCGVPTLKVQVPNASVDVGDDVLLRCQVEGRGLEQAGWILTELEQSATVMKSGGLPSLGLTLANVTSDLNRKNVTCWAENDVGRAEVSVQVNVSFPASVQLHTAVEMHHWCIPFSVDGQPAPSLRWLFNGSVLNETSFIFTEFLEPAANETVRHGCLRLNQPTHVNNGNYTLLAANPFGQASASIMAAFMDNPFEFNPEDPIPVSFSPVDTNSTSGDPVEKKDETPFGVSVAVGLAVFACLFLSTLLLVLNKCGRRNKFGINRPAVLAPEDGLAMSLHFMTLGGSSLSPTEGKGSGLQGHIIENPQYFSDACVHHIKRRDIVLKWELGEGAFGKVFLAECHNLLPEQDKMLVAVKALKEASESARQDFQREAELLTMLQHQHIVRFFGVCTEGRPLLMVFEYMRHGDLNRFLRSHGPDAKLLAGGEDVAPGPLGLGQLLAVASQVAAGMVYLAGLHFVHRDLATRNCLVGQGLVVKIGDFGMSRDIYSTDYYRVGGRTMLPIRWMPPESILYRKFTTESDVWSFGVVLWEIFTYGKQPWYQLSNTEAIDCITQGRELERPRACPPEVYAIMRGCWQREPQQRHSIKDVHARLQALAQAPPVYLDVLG

CN1CCN(c2ccc(C(=O)Nc3n[nH]c4nc(N)c(Sc5cc(F)cc(F)c5)cc34)c(NC3CCOCC3)c2)CC1 [Example 14-11, N-(6-amino-5-(3,5-difluorophenylthio)-1H-pyrazolo[3,4-b]pyridin-3-yl)-4-(4-methylpiperazin-1-yl)-2-(tetrahydro-2H-pyran-4-ylamino)benzamide] gave an IC50 (KM-12 colon cancer cells) of 2.2 nM.

In the case of CN1CCN(c2ccc(C(=O)Nc3n[nH]c4ncc(Sc5cc(F)cc(F)c5)cc34)c(NC3CCOCC3)c2)CC1 [Example 30, N-(5-(3,5-difluorophenylthio)-1-H-pyrazolo[3,4-b]pyridine-3-yl)-4-(4-methylpiperazine-1-yl)-2-(tetrahydro-2H-pyran-4-ylamino)benzamide], the IC50 (KM-12 colon cancer cells) is reported as 36 nM, the adverse effects ([1]; 120 and 240 mg/kg) is reported as “without any adverse effects” and the tumor growth inhibition ([1]; recorded at 120 and 240 mg/kg, lasts one week after the end of treatment) is reported as “up to 96%”.

With CN1CCN(c2ccc(C(=O)Nc3n[nH]c4ncc(Cc5cc(F)cc(F)c5)cc34)c(NC3CCOCC3)c2)CC1 [Example 30-9, N-(5-(3,5-difluorobenzyl)-1H-pyrazolo[3,4-b]pyridin-3-yl)-4-(4-methylpiperazin-1-yl)-2-(tetrahydro-2H-pyran-4-ylamino)benzamidc] the “Enzymatic inhibition at 10 nM (%) TrkB” value (TrkB) was 98% and the “Enzymatic inhibition at 10 nM (%) TrkA” value (TrkA) was 55%.

COC(=O)[C@@]1(O)C[C@H]2O[C@]1(C)n1c3ccccc3c3c4c(c5c6ccccc6n2c5c31)C(=O)NC4 [Example K252a, K252a] was tested, and the IC50 (TrkB (or NTRK2)) was 74 nM and the “pIC50 on TrkB” value (TrkB (or NTRK2); mean±SD) was 7.16±0.18.
